Test results reported in PubChem BioAssay AID328 (DTP/NCI, 2004).
Inconclusive results and toxic doses are left out. How the source made its calls: active means survival T/C of 150% or more; inactive means T/C below 125% in these data.

Tested on: BDF1 mice, P388 leukemia ip, median survival T/C
Assay: NCI In Vivo Anticancer Drug Screen. Data for tumor model P388 Leukemia (intraperitoneal) in B6D2F1 (BDF1) mice
Conditions: endpoint: median survival time, higher = longer survival
How it was run: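 Vehicle-dosed animals serve as the reference; survival of compound-dosed, tumour-implanted mice is divided by it.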

[1] = dose: 50.0 mg/kg/injection, schedule: Q01DX009 (ip), vehicle: saline with Tween-80
[2] = dose: 25.0 mg/kg/injection, schedule: Q04DX003 (ip), vehicle: saline with Tween-80
[3] = dose: 50.0 mg/kg/injection, schedule: Q04DX003 (ip), vehicle: saline with Tween-80
[4] = dose: 100.0 mg/kg/injection, schedule: Q04DX003 (ip), vehicle: Klucel (hydroxypropylcellulose) (HPC)
[5] = dose: 200.0 mg/kg/injection, schedule: Q04DX003 (ip), vehicle: Klucel (hydroxypropylcellulose) (HPC)
[6] = dose: 400.0 mg/kg/injection, schedule: Q04DX003 (ip), vehicle: Klucel (hydroxypropylcellulose) (HPC)
[7] = dose: 100.0 mg/kg/injection, schedule: Q01DX009 (ip), vehicle: saline with Tween-80
[8] = dose: 200.0 mg/kg/injection, schedule: Q01DX009 (ip), vehicle: saline with Tween-80
[9] = dose: 25.0 mg/kg/injection, schedule: Q04DX003 (ip), vehicle: Klucel (hydroxypropylcellulose) (HPC)
[10] = dose: 50.0 mg/kg/injection, schedule: Q04DX003 (ip), vehicle: Klucel (hydroxypropylcellulose) (HPC)
[11] = dose: 50.0 mg/kg/injection, schedule: Q01DX009 (ip), vehicle: Klucel (hydroxypropylcellulose) (HPC)
[12] = dose: 100.0 mg/kg/injection, schedule: Q01DX001 (ip), vehicle: Klucel (hydroxypropylcellulose) (HPC)
[13] = dose: 200.0 mg/kg/injection, schedule: Q01DX009 (ip), vehicle: Klucel (hydroxypropylcellulose) (HPC)
[14] = dose: 400.0 mg/kg/injection, schedule: Q01DX001 (ip), vehicle: Klucel (hydroxypropylcellulose) (HPC)

Measured: T/C

COc1cc2c3c4c1OCc1c5c(cc(c1-4)CC3[N+](C)(C)CC2)OCO5 (stereo unspecified)
inactive: dose: 6.25 mg/kg/injection, schedule: Q01DX001 (ip), vehicle: saline 105 % of control | dose: 12.5 mg/kg/injection, schedule: Q01DX001 (ip), vehicle: saline 99 % of control

Cc1ccc(C)c(N2CCN(c3ccncc3N)CC2)c1
inactive: dose: 37.5 mg/kg/injection, schedule: Q04DX003 (ip), vehicle: saline with Tween-80 113 % of control | dose: 75.0 mg/kg/injection, schedule: Q04DX003 (ip), vehicle: saline with Tween-80 122 % of control | dose: 150.0 mg/kg/injection, schedule: Q04DX003 (ip), vehicle: saline with Tween-80 118 % of control

C=CCOc1ccccc1N/N=C(\Cl)C(=O)OCC
inactive: [1] 119 % of control

C=C(C)CSC(=S)NNc1ccccc1
inactive: dose: 37.5 mg/kg/injection, schedule: Q04DX003 (ip), vehicle: acetone 109 % of control | dose: 56.25 mg/kg/injection, schedule: Q01DX009 (ip), vehicle: Klucel (hydroxypropylcellulose) (HPC) 115 % of control | dose: 75.0 mg/kg/injection, schedule: Q04DX003 (ip), vehicle: acetone 100 % of control | dose: 100.0 mg/kg/injection, schedule: Q01DX001 (ip), vehicle: alcohol 100 % of control | dose: 112.5 mg/kg/injection, schedule: Q01DX009 (ip), vehicle: Klucel (hydroxypropylcellulose) (HPC) 110 % of control | dose: 150.0 mg/kg/injection, schedule: Q01DX009 (ip), vehicle: Klucel (hydroxypropylcellulose) (HPC) 115 % of control | dose: 150.0 mg/kg/injection, schedule: Q01DX009 (ip), vehicle: alcohol 109 % of control | dose: 150.0 mg/kg/injection, schedule: Q04DX003 (ip), vehicle: acetone 104 % of control | dose: 200.0 mg/kg/injection, schedule: Q01DX001 (ip), vehicle: alcohol 104 % of control | dose: 225.0 mg/kg/injection, schedule: Q01DX009 (ip), vehicle: Klucel (hydroxypropylcellulose) (HPC) 115 % of control | dose: 225.0 mg/kg/injection, schedule: Q04DX003 (ip), vehicle: alcohol 100 % of control | dose: 335.0 mg/kg/injection, schedule: Q01DX009 (ip), vehicle: Klucel (hydroxypropylcellulose) (HPC) 115 % of control | dose: 340.0 mg/kg/injection, schedule: Q04DX003 (ip), vehicle: alcohol 95 % of control

O=[N+]([O-])c1ccc(Oc2ccc(-c3ccccc3)cc2)c(Cl)c1
inactive: dose: 18.75 mg/kg/injection, schedule: Q01DX009 (ip), vehicle: saline with Tween-80 92 % of control | dose: 75.0 mg/kg/injection, schedule: Q01DX009 (ip), vehicle: saline with Tween-80 93 % of control

CCN(CCS)Cc1ccccc1
inactive: [2] 100 % of control | [3] 104 % of control | dose: 100.0 mg/kg/injection, schedule: Q04DX003 (ip), vehicle: saline with Tween-80 109 % of control

CN=C(NC)c1ccc(NC(=O)c2ccc(C(=O)Nc3ccc(C(=NC)NC)cc3)cc2)cc1
inactive: dose: 6.25 mg/kg/injection, schedule: Q01DX009 (ip), vehicle: saline with Tween-80 104 % of control | dose: 12.5 mg/kg/injection, schedule: Q01DX009 (ip), vehicle: saline with Tween-80 100 % of control | dose: 25.0 mg/kg/injection, schedule: Q01DX009 (ip), vehicle: saline with Tween-80 86 % of control | dose: 100.0 mg/kg/injection, schedule: Q04DX003 (ip), vehicle: saline 90 % of control | dose: 200.0 mg/kg/injection, schedule: Q04DX003 (ip), vehicle: saline 90 % of control

NC1=C(c2ccccc2)C(=O)c2ccccc21
inactive: [4] 104 % of control | [5] 109 % of control | [6] 109 % of control

CC1=CC(=O)OC2(C1)CC1CCC2CN1C (stereo unspecified)
inactive: dose: 12.5 mg/kg/injection, schedule: Q01DX009 (ip), vehicle: saline 110 % of control | dose: 25.0 mg/kg/injection, schedule: Q01DX009 (ip), vehicle: saline 100 % of control | dose: 25.0 mg/kg/injection, schedule: Q04DX003 (ip), vehicle: saline 100 % of control | dose: 50.0 mg/kg/injection, schedule: Q01DX009 (ip), vehicle: saline 100 % of control | dose: 50.0 mg/kg/injection, schedule: Q04DX003 (ip), vehicle: saline 104 % of control

Cn1ccc(=O)c2cc([N+](=O)[O-])ccc21
inactive: dose: 12.5 mg/kg/injection, schedule: Q01DX009 (ip), vehicle: water 94 % of control | dose: 25.0 mg/kg/injection, schedule: Q01DX009 (ip), vehicle: water 111 % of control | dose: 25.0 mg/kg/injection, schedule: Q04DX003 (ip), vehicle: water 102 % of control | dose: 50.0 mg/kg/injection, schedule: Q01DX009 (ip), vehicle: water 93 % of control | dose: 50.0 mg/kg/injection, schedule: Q04DX003 (ip), vehicle: water 100 % of control | dose: 100.0 mg/kg/injection, schedule: Q01DX009 (ip), vehicle: water 94 % of control | dose: 100.0 mg/kg/injection, schedule: Q04DX003 (ip), vehicle: water 109 % of control | dose: 200.0 mg/kg/injection, schedule: Q01DX009 (ip), vehicle: water 93 % of control | dose: 200.0 mg/kg/injection, schedule: Q04DX003 (ip), vehicle: water 92 % of control | dose: 300.0 mg/kg/injection, schedule: Q01DX009 (ip), vehicle: water 113 % of control

O=S1(=O)CC2(N3CCOCC3)CCCCC21 (stereo unspecified)
inactive: [7] 100 % of control | [8] 100 % of control | dose: 400.0 mg/kg/injection, schedule: Q01DX009 (ip), vehicle: saline with Tween-80 112 % of control

COC(=O)/C=C/c1cccnc1
inactive: [9] 100 % of control | [10] 90 % of control | [4] 95 % of control | [5] 90 % of control

CS(=O)(=O)OCCSc1nc2ccccc2n1Cc1ccccc1
inactive: dose: 25.0 mg/kg/injection, schedule: Q01DX001 (ip), vehicle: saline with Tween-80 100 % of control | dose: 50.0 mg/kg/injection, schedule: Q01DX001 (ip), vehicle: saline with Tween-80 106 % of control | dose: 100.0 mg/kg/injection, schedule: Q01DX001 (ip), vehicle: saline with Tween-80 101 % of control

BrC1CC(Br)c2c1c1c(c3c2C(Br)CC3Br)C(Br)CC1Br (stereo unspecified)
inactive: [8] 90 % of control

O=C1OC(c2ccc([N+](=O)[O-])cc2)Sc2ccccc21 (stereo unspecified)
inactive: [11] 86 % of control | [12] 100 % of control | [4] 100 % of control | dose: 200.0 mg/kg/injection, schedule: Q01DX001 (ip), vehicle: Klucel (hydroxypropylcellulose) (HPC) 100 % of control | [13] 100 % of control | [5] 104 % of control | [14] 100 % of control | [6] 109 % of control

CC(C)(C)CSc1ccccc1SCC(C)(C)C
inactive: dose: 50.0 mg/kg/injection, schedule: Q04DX002 (ip), vehicle: saline with Tween-80 107 % of control | dose: 100.0 mg/kg/injection, schedule: Q04DX002 (ip), vehicle: saline with Tween-80 98 % of control | dose: 200.0 mg/kg/injection, schedule: Q04DX002 (ip), vehicle: saline with Tween-80 93 % of control

CCCCCCCCOC(=O)c1[nH]cnc1/N=N\N(C)C
inactive: dose: 12.5 mg/kg/injection, schedule: Q01DX009 (ip), vehicle: Klucel (hydroxypropylcellulose) (HPC) 95 % of control | dose: 25.0 mg/kg/injection, schedule: Q01DX009 (ip), vehicle: Klucel (hydroxypropylcellulose) (HPC) 95 % of control | [11] 90 % of control

COc1ccc(C(=O)CC(C#N)c2ccc(OC)cc2)cc1 (stereo unspecified)
inactive: [1] 106 % of control | [7] 106 % of control | [8] 101 % of control

CSc1ccc(O)c(S)c1
inactive: [1] 118 % of control | [7] 122 % of control | [8] 124 % of control

Oc1ccc2ccc3[nH]cnc3c2c1
inactive: [11] 95 % of control | dose: 100.0 mg/kg/injection, schedule: Q01DX009 (ip), vehicle: Klucel (hydroxypropylcellulose) (HPC) 95 % of control | [13] 100 % of control

COC(=O)CN(c1c(C)cc(C)c(N)c1C)S(=O)(=O)c1ccccc1
inactive: [12] 91 % of control | [14] 100 % of control

CC(=O)N(C)N(Cc1ccc(C#N)cc1)C(C)=O
inactive: [9] 94 % of control | [10] 100 % of control | [4] 99 % of control | [5] 100 % of control | [6] 111 % of control

CCCOC(=O)/C=C(\Br)C(=O)OCCC
inactive: dose: 12.5 mg/kg/injection, schedule: Q04DX003 (ip), vehicle: saline with Tween-80 108 % of control | [2] 110 % of control | [3] 95 % of control
